Data from US8653046B2, “Controlling transgene expression across the skin” (ETH Zurich, priority 2009, dated 2014).

Experiments:
TtgA3 (TtgR-E2F4) = experiment: PEACE: SEAP expression after transient co-transfection of pMG10 and pMG19 (PSV40-TtgA3-pA); format: cell-based, Pseudomonas putida DOT-T1E; settings: 48 h
Excerpt: (§1) Three different transactivators are designed, harboring either the VP16 (TtgA1; pMG11, TtgR-VP16) (Triezenberg S. J. et al., loc. cit.), the p65 (TtgA2; pMG18, TtgR-p65) (Urlinger S., et al., 2000, Gene 247(1-2):103-110) or the human E2F4 (TtgA3; pMG19, TtgR-E2F4) (Akagi K., Kanai M., Saya H., Kozu T., Berns A., 2001, Nucleic Acids Res 29(4):e23) transactivation domains. pMG11, pMG18 or pMG19 are co-transfected with pMG10 (PTtgR1-SEAP-pA) into CHO-K1, HEK-293 as well as primary human fibroblasts and keratinocytes, and SEAP expression is profiled after 48 h of cultivation in the presence or absence of 50 μM phloretin. […] All transactivators mediate similar basal expression levels when phloretin is […] in the medium, but due to their cell-type specificity and graded maximum transcription-initiation capacities, the three transactivators offer a selection of defined expression windows.

TtgA1 (TtgR-VP16) = TtgA1 (TtgR-VP16) (Pseudomonas putida, UniProt Q9AIU0); experiment: PEACE: SEAP expression after transient co-transfection of pMG10 (PTtgR1-SEAP-pA) and pMG11 (PSV40-TtgA1-pA); format: cell-based; set-up: key to SEAP Production: ^a): Undetectable; settings: 48 h
Excerpt: Living in the plant rhizosphere, Pseudomonas putida DOT-T1E has evolved resistance to a variety of plant-derived antimicrobials, which is triggered by phloretin-induced release of TtgR protein from the operator (OTtgR) of its target promoter and subsequent induction of a broadly specific TtgABC efflux pump (Teran W. et al., loc. cit.).
Three different transactivators are designed, harboring either the VP16 (TtgA1; pMG11, TtgR-VP16) (Triezenberg S. J. et al., loc. cit.), the p65 (TtgA2; pMG18, TtgR-p65) (Urlinger S., et al., 2000, Gene 247(1-2):103-110) or the human E2F4 (TtgA3; pMG19, TtgR-E2F4) (Akagi K., Kanai M., Saya H., Kozu T., Berns A., 2001, Nucleic Acids Res 29(4):e23) transactivation domains. pMG11, pMG18 or pMG19 are co-transfected with pMG10 (PTtgR1-SEAP-pA) into CHO-K1, HEK-293 as well as primary human fibroblasts and keratinocytes, and SEAP expression is profiled after 48 h of cultivation in the presence or absence of 50 μM phloretin.
CHO-K1 are transiently (co-)transfected with either pMG10 (PTtgR1-SEAP-pA) and pMG11 (PSV40-TtgA1-pA), to score regulation performance, or with pSEAP2-Control (PSV40-SEAP-pA), to assess compound-related cytotoxicity, and then cultivated for 48 h in medium containing different concentrations (0, 25, 50 μM) of specific flavonoid type compounds (berberine, butylparaben, genistein, luteolin, β-naphthol, naringenin, phloretin, phloridzin or quercetin) before SEAP production is profiled (FIG. 5A).
Wild-type Chinese hamster ovary cells (CHO-K1, ATCC: CCL-61) and their derivatives are cultivated in standard medium: ChoMaster® HTS (Cell Culture Technologies, Gravesano, Switzerland) supplemented with 5% (v/v) fetal calf serum (FCS, PAN Biotech GmbH, Aidenbach, Germany, Cat. No. 3302, Lot No. P251110) and 1% (v/v) penicillin/streptomycin solution (Sigma, St Louis, Mo., USA, Cat. No. P4458). Human embryonic kidney cells (HEK-293, Mitta B., et al., 2002, Nucleic Acids Res 30(21):e113), African green monkey kidney cells (COS-7, ATCC: CRL-1651), baby hamster kidney cells (BHK-21, ATCC: CCL10), human fibrosarcoma cells (HT-1080, ATCC: CCL-121), the human keratinocyte cell line HaCaT (Boukamp P., et al., 1988, J Cell Biol 106(3):761-771) and mouse fibroblasts (NIH/3T3, ATCC: CRL-1658) are cultured in Dulbecco's modified Eagle's medium (DMEM; Invitrogen, Cat. No. 52100-39) supplemented with 10% FCS (v/v) and 1% (v/v) penicillin/streptomycin solution. Primary human foreskin fibroblasts are cultivated in DMEM supplemented with 20% FCS (v/v) and 1% (v/v) penicillin/streptomycin solution and primary human foreskin keratinocytes are cultured in chemically defined serum-free keratinocyte medium (Invitrogen, Cat. No. 10744019). All cell types are cultivated at 37° C. in a 5% CO2-containing humidified atmosphere.

TtgA2 (TtgR-p65) = experiment: PEACE: SEAP expression after transient co-transfection of pMG10 and pMG18 (PSV40-TtgA2-pA); format: cell-based, Pseudomonas putida DOT-T1E; settings: 48 h
Excerpt: as §1

TtgK (TtgR-KRAB) = experiment: PEACE-ON: SEAP expression of CHO-K1 co-transfected with pMG28 (PSV40-TtgK-pA) and pMG27 (PTtgRON-SEAP-pA); format: cell-based; settings: phloretin 0-50 μM, 48 h
Procedure: (C) SEAP expression profiles of CHO-K1 transiently transfected with pMG28 (PSV40-TtgK-pA) and pMG27 (PTtgRON-SEAP-pA) and cultivated for 48 h in the presence of different phloretin concentrations (0-50 μM).
By fusing TtgR to the human Kruppel-associated box-protein (KRAB) (Moosmann P., Georgiev O., Thiesen H. J., Hagmann M., Schaffner W., […], Biol Chem 378(7):669-677) a synthetic mammalian transrepressor (TtgK) is created, which is able to bind and inhibit transcription from a promoter (PTtgRON) harboring eight OTtgR-elements located 3′ of a constitutive simian virus 40 promoter (PSV40), in a phloretin-responsive manner (FIGS. 10A and B). Co-transfection of the constitutive TtgK expression vector pMG28 (PSV40-TtgK-pA) and pMG27 (PTtgRON-SEAP-pA) encoding a TtgK-specific PTtgRON-driven SEAP expression unit, results in low-level, basal SEAP expression (2.3±0.26 U/L). […]

TtgA1 (TtgR-VP16), sequence (Q9AIU0 whole entry, added parts left off): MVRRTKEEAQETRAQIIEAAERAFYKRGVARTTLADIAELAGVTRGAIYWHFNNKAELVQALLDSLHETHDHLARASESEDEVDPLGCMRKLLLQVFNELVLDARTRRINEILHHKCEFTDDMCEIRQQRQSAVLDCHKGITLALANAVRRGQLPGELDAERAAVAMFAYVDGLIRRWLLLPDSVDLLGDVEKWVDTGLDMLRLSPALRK

## O=C(CCc1ccc(O)cc1)c1c(O)cc(O)cc1O [phloretin, 3-[4-hydroxyphenyl]-1-[2,4,6-trihydroxyphenyl]-1-propanone]
TtgA3 (TtgR-E2F4); CHO-K1, phloretin 50 μM
  SEAP Production: 0.26 ± 0.08 U/L
TtgA3 (TtgR-E2F4); HEK-293, phloretin 50 μM
  SEAP Production: 0.2 ± 0.016 U/L
TtgA3 (TtgR-E2F4); HaCaT, phloretin 50 μM
  SEAP Production: 0.5 ± 0.05 U/L
TtgA1 (TtgR-VP16); BHK-21, 50 μM Phloretin
  SEAP Production: 1.5 ± 0.2 U/L
TtgA1 (TtgR-VP16); CHO-K1, 0, 25, 50 μM
  PEACE regulation performance (SEAP production): full transgene repression
TtgA1 (TtgR-VP16); CHO-K1, phloretin 0-70 μM
  SEAP expression dose response: dose-dependent reduction of SEAP expression up to complete repression
TtgA1 (TtgR-VP16); CHO-K1, phloretin 50 μM
  SEAP Production: 0.2 ± 0.016 U/L
TtgA1 (TtgR-VP16); COS-7, 50 μM Phloretin
  SEAP Production: *
TtgA1 (TtgR-VP16); HEK-293, 50 μM Phloretin
  SEAP Production: 0.2 ± 0.04 U/L
TtgA1 (TtgR-VP16); HEK-293, phloretin 50 μM
  SEAP Production: 0.2 ± 0.04 U/L
TtgA1 (TtgR-VP16); HT-1080, 50 μM Phloretin
  SEAP Production: *
TtgA1 (TtgR-VP16); HaCaT, 50 μM Phloretin
  SEAP Production: *
TtgA1 (TtgR-VP16); NIH/3T3, 50 μM Phloretin
  SEAP Production: *
TtgA1 (TtgR-VP16); Primary human fibroblasts, 50 μM Phloretin
  SEAP Production: *
TtgA1 (TtgR-VP16); Primary human keratinocytes, 50 μM Phloretin
  SEAP Production: *
TtgA2 (TtgR-p65); CHO-K1, phloretin 50 μM
  SEAP Production: 0.8 ± 0.05 U/L
TtgA2 (TtgR-p65); HEK-293, phloretin 50 μM
  SEAP Production: 1.9 ± 0.1 U/L
TtgA2 (TtgR-p65); HaCaT, phloretin 50 μM
  SEAP Production: 0.5 ± 0.05 U/L
TtgA2 (TtgR-p65); human primary fibroblasts, phloretin 50 μM
  SEAP Production: 0.2 ± 0.02 U/L
TtgA2 (TtgR-p65); human primary keratinocytes, phloretin 50 μM
  SEAP Production: 0.3 ± 0.02 U/L
TtgK (TtgR-KRAB)
  SEAP expression dose response (PEACE-ON): dose-dependent induction of SEAP expression
